Test results taken from patent US9464106B2, “Oligonucleotides useful for detecting and analyzing nucleic acids of interest” (Exiqon A/S, priority 2002, dated 2016).
Marks after values point to notes of the source that are not given here. l = locked nucleic acid (LNA); [5mC] = 5-methylcytosine; d = 2'-deoxy (DNA)

Each substance was assayed on complementary single stranded DNA (3′-ctgNatcc) (assay: Melting temperatures of DNA and LNA 8-mers containing inosine, 2,6-diaminopurine or 2-aminopurine against complementary DNA). Conditions: duplex 2.5 μM; 0.1M NaCl; 10 mM Na-phosphate (pH 7.0); 1 mM EDTA.
Format: binding

| Substance | Tm of the duplex with 3′-ctgaatcc | Tm of the duplex with 3′-ctgcatcc [°C] | Tm of the duplex with 3′-ctggatcc | Tm of the duplex with 3′-ctgtatcc [°C] |
| --- | --- | --- | --- | --- |
| 5′-gacttagg [Entry 2, reference compound] | 22.6 °C | <10 | <10 °C | <10 |
| 5′-gacatagg [Entry 1, reference compound] | <10 °C | <10 | <10 °C | 23.8 |
| 5′-GACATAGG [Entry 8] | 38.2 °C | 40.6 | 43.4 °C | 61.6 |
| 5′-GACITAGG [Entry 13] | 48.2 °C | 59.9 | 43.0 °C | 53.1 |
| 5′-GACTTAGG [Entry 9] | 60.7 °C | 23.5 | 36.4 °C | 28.0 |
| 5′-GDCDTDGG [Entry 12] | 55.9 °C | 63.8 | 54.7 °C | 78.3 |
| 5′-gacitagg [Entry 6, reference compound] | <10 °C | 20.9 | <10 °C | <10 |
| 5′-GACGTAGG [Entry 10] | 32^b ° C. | 70.9 | 41^b ° C. | 55.0 |
| 5′-GACDTAGG [Entry 11] | 42.2 °C | 52.4 | 41.4 °C | 67.8 |
| 5′-gacgtagg [Entry 3, reference compound] | <10 °C | 25.0 | <10 °C | <10 |
| 5′-gacdtagg [Entry 4, reference compound] | <10 °C | <10 | <10 °C | 23.3 |

Same assay, conditions: entries 1 and 4

| Substance | destabilization of the duplex on analogous replacement in a DNA octamer [°C] |
| --- | --- |
| 5′-gacdtagg [Entry 4, reference compound] | 0.5 |

Same assay, conditions: entries 8 and 11

| Substance | stabilization of the complementary duplex on replacement of one internal LNA-A by LNA-D [°C] |
| --- | --- |
| (1R,3R,4R,7S)-7-(2-Cyanoethoxy(diisopropylamino)phosphinoxy)-1-(4,4′-dimethoxytrityloxymethyl)-3-(hyroxanthin-9-yl)-dioxabicyclo[2.2.1]heptane [compound 11] | 6.2 |

These substances were tested on yeast HSP78 (YDR258C) sequence (assay: Duplex melting temperatures of HSP78 25-mer capture probes (UV spectrophotometer)). Conditions: 25-mer capture probe duplex with complementary target; design PM = perfectly matched, MM = single mismatch; DNA, LNA_T (T) or LNA_TC (TC) substituted.

| Substance | Average duplex melting temp. [°C] |
| --- | --- |
| 12683 (DNA TTGGAAACATCGCGGTGCGCTTTTT; DNA, backbone not given here) [compound 12683] | 61.5 |
| 12700 (DNA TCAATGGCCTTGGACCATATAATTG; DNA, backbone not given here) [compound 12700] | 59.5 |
| 12765 (DNA TCAGTTAGCCAATCCTTCGCTTCAT; DNA, backbone not given here; further chemistry not fully specified) [compound 12765] | 66.1 |
| 12814 (DNA GTTGCCATGGAGTTCAAAATCTGTC; sugars from the 5' end dlddlldlddddldlddddllddld, [5mC] at 5, 6, 15, 21, backbone not given here; further chemistry not fully specified) [compound 12814] | 78.3 |
| 12788 (DNA GATGAACTCAGGTGGATAGGATCTT; sugars from the 5' end ddlddddlddddldddlddddldld, backbone not given here; further chemistry not fully specified) [compound 12788] | 71 |
| 12815 (DNA AGACGTACAGCATCAGAAATAGCAG; DNA at AG, LNA at CT, all C 5-methyl, backbone not given here; further chemistry not fully specified) [compound 12815] | 81.9 |
| 12757 (DNA GACAGCCTCAGTTAATTGGCCACCA; DNA, backbone not given here; further chemistry not fully specified) [compound 12757] | 70.2 |
| 12685 (DNA GACAGCCTCAGTAAATTGGCCACCA; DNA, backbone not given here) [compound 12685] | 64.8 |
| 12733 (DNA GACAGCCTCAGTAAATTGGCCACCA; sugars from the 5' end ddlddldldddddddlldddlddld, [5mC] at 3, 6, 21, 24, backbone not given here) [compound 12733] | 77.4 |
| 12724 (DNA TCAATGGCCTTGGACCATATAATTG; DNA at ACG, LNA at T, backbone not given here) [compound 12724] | 69.7 |
| 12710 (DNA CCGATTAAACGACAGACAGTATGCT; sugars from the 5' end ddddlldddddddddddddldlddd, backbone not given here) [compound 12710] | 63.5 |
| 12818 (DNA TTTTTCGGCCAAACGATCTTGAATT; sugars from the 5' end ldldllddlldddldddldldddld, all C 5-methyl, backbone not given here; further chemistry not fully specified) [compound 12818] | 77.8 |
| 12806 (DNA CCGATTAAACGAGAGACAGTATGCT; sugars from the 5' end llddlldddlddddddlddldldld, all C 5-methyl, backbone not given here; further chemistry not fully specified) [compound 12806] | 79.4 |
| 12759 (DNA ATCAAATAGGAATTCAGCTAAAGCC; DNA, backbone not given here; further chemistry not fully specified) [compound 12759] | 61.5 |
| 12817 (DNA ATAAAGCTGGCAATAGGTCTCTTTT; sugars from the 5' end dlddddllddlddldddllldllld, [5mC] at 7, 11, 19, backbone not given here; further chemistry not fully specified) [compound 12817] | 81.2 |
| 12777 (DNA CAATGATCGTGTTACGGAAATCAAC; sugars from the 5' end dddlddlddlddldddddddldddd, backbone not given here; further chemistry not fully specified) [compound 12777] | 72.2 |
| 12697 (DNA ATAAAGCTGGCATTAGGTCTCTTTT; DNA, backbone not given here) [compound 12697] | 58.4 |
| 12745 (DNA ATAAAGCTGGCATTAGGTCTCTTTT; sugars from the 5' end dlddddllddlddddddllldllld, [5mC] at 7, 11, 19, backbone not given here) [compound 12745] | 74 |
| 12800 (DNA ACCATCATCACCCAACCTTGTGTCG; sugars from the 5' end dlddlddldddllddddlddlddld, [5mC] at 2, 12, 13, 24, backbone not given here; further chemistry not fully specified) [compound 12800] | 74.2 |
| 12737 (DNA AAATAGCAGCAAAGGCCTCGTCTTG; sugars from the 5' end dddlddlddldddddldlldlddld, [5mC] at 7, 10, 16, 19, backbone not given here) [compound 12737] | 79.3 |
| 12804 (DNA GAAACATCGGGGTGCGCTTTTTCAA; sugars from the 5' end ddddldllddddldldddddldldd, [5mC] at 5, 8, 15, 23, backbone not given here; further chemistry not fully specified) [compound 12804] | 83.2 |
| 12782 (DNA CCGATTAAACGAGAGACAGTATGCT; sugars from the 5' end ddddlldddddddddddddldlddd, backbone not given here; further chemistry not fully specified) [compound 12782] | 72.2 |
| 12712 (DNA GACCTAAGAACAAAAAGCTGGCAAT; sugars from the 5' end d4 l1 d13 l1 d6, backbone not given here) [compound 12712] | 61.1 |
| 12696 (DNA TTTGGTAGCACGTCAAGCTTAGTAT; DNA, backbone not given here) [compound 12696] | 59.2 |
